The target in assay [1] is Tyrosine-protein kinase Blk (Homo sapiens) (UniProt P51451). The assay is described as follows: Inhibition of BLK (unknown origin) assessed as residual activity at 100 nM by KINOMEscan analysis relative to control.
Assay [2] deals with Cyclin-dependent kinase 4/cyclin D1 (Homo sapiens) (UniProt P11802+P24385). Description: Inhibition of CDK4-cyclin D1 (unknown origin) assessed as residual activity at 100 nM by KINOMEscan analysis relative to control. It counts as protein-complex assay.
The species named for assay [3] is Homo sapiens. Description: Inhibition of JNK2 (unknown origin) assessed as residual activity at 100 nM by KINOMEscan analysis relative to control.
Assay [4] deals with T1, Serine/threonine-protein kinase D3 (Homo sapiens) (UniProt O94806).
T1 sequence (whole entry): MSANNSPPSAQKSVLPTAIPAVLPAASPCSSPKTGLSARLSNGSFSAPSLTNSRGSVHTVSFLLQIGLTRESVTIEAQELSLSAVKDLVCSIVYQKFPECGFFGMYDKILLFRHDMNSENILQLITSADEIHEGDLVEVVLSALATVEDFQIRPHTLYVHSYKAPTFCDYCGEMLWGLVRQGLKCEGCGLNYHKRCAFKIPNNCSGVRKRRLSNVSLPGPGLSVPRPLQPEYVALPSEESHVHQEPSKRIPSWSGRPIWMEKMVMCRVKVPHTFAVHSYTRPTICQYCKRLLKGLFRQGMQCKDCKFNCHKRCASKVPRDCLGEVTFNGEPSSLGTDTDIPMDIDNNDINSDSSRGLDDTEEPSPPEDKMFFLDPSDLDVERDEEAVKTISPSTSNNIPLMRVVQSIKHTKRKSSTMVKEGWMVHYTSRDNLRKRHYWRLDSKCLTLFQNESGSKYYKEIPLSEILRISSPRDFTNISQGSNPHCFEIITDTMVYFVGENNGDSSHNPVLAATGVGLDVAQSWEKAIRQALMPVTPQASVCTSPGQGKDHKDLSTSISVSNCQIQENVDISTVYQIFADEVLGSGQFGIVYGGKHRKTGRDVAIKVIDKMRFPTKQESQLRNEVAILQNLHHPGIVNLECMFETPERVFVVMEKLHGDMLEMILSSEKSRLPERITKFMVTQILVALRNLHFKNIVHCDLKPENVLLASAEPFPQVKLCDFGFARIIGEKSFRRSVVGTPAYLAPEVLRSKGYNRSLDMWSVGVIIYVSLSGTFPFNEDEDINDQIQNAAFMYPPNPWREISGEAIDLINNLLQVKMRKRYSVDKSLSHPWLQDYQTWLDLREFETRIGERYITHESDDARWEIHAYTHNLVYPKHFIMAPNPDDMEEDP
The assay is described as follows: Inhibition of PRKD3 (unknown origin) assessed as residual activity at 100 nM by KINOMEscan analysis relative to control.

Assay [5] concerns the target T2, Serine/threonine-protein kinase TAO2 (Homo sapiens) (UniProt Q9UL54).
T2 sequence (whole entry): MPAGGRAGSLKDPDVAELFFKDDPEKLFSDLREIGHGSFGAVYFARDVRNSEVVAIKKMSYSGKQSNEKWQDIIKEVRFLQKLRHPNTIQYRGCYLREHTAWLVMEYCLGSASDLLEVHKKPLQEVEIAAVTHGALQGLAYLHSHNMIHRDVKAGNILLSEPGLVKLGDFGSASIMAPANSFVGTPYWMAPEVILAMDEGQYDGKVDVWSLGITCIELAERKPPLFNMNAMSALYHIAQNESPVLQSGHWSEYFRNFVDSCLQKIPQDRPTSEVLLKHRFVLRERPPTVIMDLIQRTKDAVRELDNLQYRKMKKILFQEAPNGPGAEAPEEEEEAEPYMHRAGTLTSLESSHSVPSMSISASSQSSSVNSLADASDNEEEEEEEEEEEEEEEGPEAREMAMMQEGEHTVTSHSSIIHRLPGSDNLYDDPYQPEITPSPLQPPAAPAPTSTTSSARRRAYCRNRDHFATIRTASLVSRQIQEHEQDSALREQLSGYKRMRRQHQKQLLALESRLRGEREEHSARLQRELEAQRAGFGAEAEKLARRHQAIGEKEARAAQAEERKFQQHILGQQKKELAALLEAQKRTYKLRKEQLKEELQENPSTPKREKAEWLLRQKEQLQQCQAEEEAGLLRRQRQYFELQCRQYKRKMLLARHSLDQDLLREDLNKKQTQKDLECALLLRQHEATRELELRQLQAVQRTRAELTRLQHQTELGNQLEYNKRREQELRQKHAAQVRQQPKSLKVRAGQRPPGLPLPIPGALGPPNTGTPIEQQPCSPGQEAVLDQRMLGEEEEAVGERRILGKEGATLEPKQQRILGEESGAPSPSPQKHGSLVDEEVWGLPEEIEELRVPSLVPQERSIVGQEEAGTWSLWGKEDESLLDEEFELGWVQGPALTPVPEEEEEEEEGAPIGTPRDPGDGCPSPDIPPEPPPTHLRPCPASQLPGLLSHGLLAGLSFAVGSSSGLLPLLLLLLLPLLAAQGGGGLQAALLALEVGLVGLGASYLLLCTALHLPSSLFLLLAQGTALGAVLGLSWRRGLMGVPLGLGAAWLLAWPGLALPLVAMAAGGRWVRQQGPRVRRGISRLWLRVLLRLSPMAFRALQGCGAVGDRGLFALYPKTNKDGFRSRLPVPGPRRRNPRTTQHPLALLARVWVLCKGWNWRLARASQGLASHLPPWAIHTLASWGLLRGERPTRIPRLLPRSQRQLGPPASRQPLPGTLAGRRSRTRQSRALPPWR
Description: Inhibition of TAOK2 (unknown origin) assessed as residual activity at 100 nM by KINOMEscan analysis relative to control.

Structures are written as SMILES.

Sequence of Tyrosine-protein kinase Blk (Homo sapiens) (P51451 2-505 limits assumed): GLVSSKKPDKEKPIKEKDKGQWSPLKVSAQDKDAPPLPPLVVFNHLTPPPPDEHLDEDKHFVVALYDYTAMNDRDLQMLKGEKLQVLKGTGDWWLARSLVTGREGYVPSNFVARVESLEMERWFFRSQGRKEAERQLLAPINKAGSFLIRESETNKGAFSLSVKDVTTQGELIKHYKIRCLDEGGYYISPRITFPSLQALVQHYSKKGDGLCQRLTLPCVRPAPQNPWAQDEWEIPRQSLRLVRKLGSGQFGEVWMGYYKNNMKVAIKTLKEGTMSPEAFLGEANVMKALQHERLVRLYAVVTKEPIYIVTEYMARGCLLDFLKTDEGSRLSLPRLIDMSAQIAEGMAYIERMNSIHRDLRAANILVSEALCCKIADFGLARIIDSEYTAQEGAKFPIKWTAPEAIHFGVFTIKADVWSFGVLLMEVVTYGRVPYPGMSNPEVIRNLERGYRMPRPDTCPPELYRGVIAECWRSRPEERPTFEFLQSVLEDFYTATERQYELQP

For the compound `COc1cc2ncnc(N[C@H](C)c3cccc4ccccc34)c2cc1OC`, the Activity in assay [1] stood at 77%; in assay [2], 92%; in assay [3], 68%; in assay [4], 100%; in assay [5] it was 94%.
